Consider twelve compounds from ChEMBL document CHEMBL5252512, “Recent Progress in the Development of HIV-1 Protease Inhibitors for the Treatment of HIV/AIDS” (J Med Chem, 2016).

pEC50, pIC50, pKi: −log10 of the molar value.

The target in data set [1] is T1, Human immunodeficiency virus type 1 protease (Human immunodeficiency virus 1, UniProt Q72874). Description: Inhibition of recombinant HIV1 Protease using His-Lys-Ala-Arg-Val-Leu-(pNO2-Phe)-Glu-Ala-Nle-SerNH2 peptide as substrate.
Data set [2] deals with T1, Human immunodeficiency virus type 1 protease. As to the kind of experiment: Binding affinity to HIV1 protease assessed as inhibition constant.
Data set [3] concerns Human immunodeficiency virus 1. Description: Antiviral activity against HIV1 LAI infected in human MT2 cells assessed as inhibition of virus-induced cytopathic effect by MTT assay. Type of data set: functional, organism-based. Particulars: Human immunodeficiency virus 1, LAI. On the technique in general: Protection from cytopathic effect is a common read-out in antiviral testing.

Data set [4] relates to Human immunodeficiency virus 1. Description: Antiviral activity against wild type HIV1 ERS104pre infected in human PBMC cells assessed as inhibition of virus-induced cytopathic effect measured after 7 days by MTT assay. Format: functional, organism-based. Particulars: Human immunodeficiency virus 1, ERS104pre, 168 h.
Data set [5] concerns Human immunodeficiency virus 1. Description: Antiviral activity against multidrug-resistant HIV1-TM infected in phytohemagglutinin-activated human PBMC cells assessed as inhibition of virus-induced cytopathic effect measured after 7 days by MTT assay. Format: functional, organism-based. Particulars: Human immunodeficiency virus 1, TM, 168 h.
Data set [6] has as its system Human immunodeficiency virus 1. Description: Antiviral activity against multidrug-resistant HIV1-MM infected in phytohemagglutinin-activated human PBMC cells assessed as inhibition of virus-induced cytopathic effect measured after 7 days by MTT assay. The settings on record: Human immunodeficiency virus 1, MM, 168 h. Format: functional, organism-based.
Data set [7] deals with Human immunodeficiency virus 1. Description: Antiviral activity against multidrug-resistant HIV1-JSL infected in phytohemagglutinin-activated human PBMC cells assessed as inhibition of virus-induced cytopathic effect measured after 7 days by MTT assay. Type of data set: functional, organism-based. Particulars: Human immunodeficiency virus 1, JSL, 168 h.
In data set [8] the test system is Human immunodeficiency virus 1. Description: Antiviral activity against multidrug-resistant HIV1-B infected in phytohemagglutinin-activated human PBMC cells assessed as inhibition of virus-induced cytopathic effect measured after 7 days by MTT assay. Format: functional, organism-based. The settings on record: Human immunodeficiency virus 1, B, 168 h.
Data set [9] deals with Human immunodeficiency virus 1. As to the kind of experiment: Antiviral activity against multidrug-resistant HIV1-C infected in phytohemagglutinin-activated human PBMC cells assessed as inhibition of virus-induced cytopathic effect measured after 7 days by MTT assay. Format: functional, organism-based. The settings on record: Human immunodeficiency virus 1, C, 168 h.
The test system of data set [10] is Human immunodeficiency virus 1. Description: Antiviral activity against multidrug-resistant HIV1-G infected in phytohemagglutinin-activated human PBMC cells assessed as inhibition of virus-induced cytopathic effect measured after 7 days by MTT assay. Format: functional, organism-based. Particulars: Human immunodeficiency virus 1, G, 168 h.
Data set [11] has as its system Human immunodeficiency virus 1. As to the kind of experiment: Ratio of EC50 for antiviral activity against HIV1-TM to EC50 for antiviral activity against wild type HIV1 ERS104pre. Type of data set: functional.
Data set [12] concerns Human immunodeficiency virus 1. Description: Ratio of EC50 for antiviral activity against HIV1-MM to EC50 for antiviral activity against wild type HIV1 ERS104pre. Format: functional.
The test system of data set [13] is Human immunodeficiency virus 1. Description: Ratio of EC50 for antiviral activity against HIV1-JSL to EC50 for antiviral activity against wild type HIV1 ERS104pre. Format: functional.
Data set [14] concerns Human immunodeficiency virus 1. As to the kind of experiment: Ratio of EC50 for antiviral activity against HIV1-B to EC50 for antiviral activity against wild type HIV1 ERS104pre. Format: functional.
The test system of data set [15] is Human immunodeficiency virus 1. As to the kind of experiment: Ratio of EC50 for antiviral activity against HIV1-C to EC50 for antiviral activity against wild type HIV1 ERS104pre. Format: functional.
For data set [16], the system named is Human immunodeficiency virus 1. As to the kind of experiment: Ratio of EC50 for antiviral activity against HIV1-G to EC50 for antiviral activity against wild type HIV1 ERS104pre. Format: functional.
The nature of data set [17]: Cytotoxicity against human MT2 cells assessed as reduction in cell viability by MTT assay. Format: toxicity, cell-based.
Data set [18] is described as follows: Selectivity index, ratio of CC50 for human MT2 cells to IC50 for antiviral activity against HIV1 LAI. Format: toxicity. The settings on record: read-out: Ratio CC50/EC50.
The nature of data set [19]: Lipophilicity, logP of the compound in Octanol/water by shake-flask method. Type of data set: physicochemical.
Data set [20] is described as follows: Lipophilicity, logD of the compound in Octanol/buffer by shake-flask method. Type of data set: physicochemical.
The nature of data set [21]: Apparent permeability in rat astrocytes/rat pericytes/monkey endothelial cells triple cell co-culture system incubated for 30 mins by spectrophotometric analysis. Format: ADME, cell-based.
A short description of data set [22]: AUC in rat at 10 mg/kg, po. Particulars: in vivo. Further details: dose 10 mg/kg, route po. Type of data set: ADME, organism-based.
Data set [23] can be described thus: Half life in rat at 1 mg/kg, iv. Type of data set: ADME, organism-based. The settings on record: in vivo.
Data set [24] can be described thus: Clearance in rat at 2 mg/kg, iv. Format: ADME, organism-based. The settings on record: in vivo.
Data set [25] is described as follows: Clearance in dog at 1 mg/kg, iv. Type of data set: ADME, organism-based, Canis lupus familiaris. Particulars: in vivo.
Data set [26] is described as follows: Half life in dog at 1 mg/kg, iv. Format: ADME, organism-based, Canis lupus familiaris. The settings on record: in vivo.
A short description of data set [27]: AUC in dog at 4 mg/kg, po. Particulars: in vivo. Format: ADME, organism-based, Canis lupus familiaris. Further details: dose 4 mg/kg, route po.
The target in data set [28] is T1, Human immunodeficiency virus type 1 protease. As to the kind of experiment: Inhibition of recombinant wildtype HIV1 Protease using Abz-Thr-Ile-Nle-Phe(NO2)-Gln-Arg peptide as substrate.
Data set [29] has the same target. Description: Binding affinity to wild-type HIV1 protease expressed in Escherichia coli BL21(DE3) assessed as inhibition constant using (2-aminobenzoyl)Thr-Ile-Nle-(p-nitro)Phe-Gln-Arg peptide as substrate preincubated for 15 mins followed by substrate addition by fluorimeter analysis.
Data set [30] concerns Human immunodeficiency virus 1. As to the kind of experiment: Antiviral activity against wild type HIV-1 IIIB infected in human MT4 cells assessed as protection against virus-induced cytotoxicity incubated for 5 days by XTT assay. Format: functional, organism-based. The settings on record: Human immunodeficiency virus 1, IIIB, MT4, 120 h. A general note: Tetrazolium assays rely on reduction of a dye to a coloured formazan, in cell work by metabolically active cells.

Data set [31] has as its system Human immunodeficiency virus 1. As to the kind of experiment: Antiviral activity against HIV1 LAI infected in human MT2 cells assessed as inhibition of virus-induced cytopathic effect. Type of data set: functional, organism-based. The settings on record: Human immunodeficiency virus 1, LAI.
The target of data set [32] is T1, Human immunodeficiency virus type 1 protease. Description: Inhibition of recombinant HIV1 Protease using Abz-Thr-Ile-Nle-(p-nitro)-Phe-Gln-Arg-NH2 peptide as substrate.

Turning to `C=C(C)[C@@H]1CC[C@@]2(C)[C@@H]1C1CC[C@@H]3[C@@](C)(CC(=O)O)[C@H](C(C)(C)C(=O)O)CC[C@@]3(C)[C@]1(C)C[C@@H]2O` (some centres not stated), the pIC50 in [1] is 4.75.

On to `CC(C)CN(C[C@@H](O)[C@H](Cc1ccccc1)NC(=O)O[C@H]1CO[C@H]2OCC(F)(F)[C@H]21)S(=O)(=O)c1ccc(N)cc1`, for which, in data set [2], the pKi was 11.24. For the same compound, the pEC50 in data set [3] was 8.52; in data set [4], 8.57; in [5], 8.40; in [6], 8.52; in data set [7], 7.70; in data set [8], 7.96. In addition, the results for the pEC50 in data set [9] and in data set [10] were 8.70 and 8.40, respectively. For the same compound, the “Ratio EC50” value stood at 2 in data set [11]; 1 in data set [12]; 7 in [13]; 3 in [14]; 1 in [15]; 2 in data set [16]. Besides, in data set [17], the CC50 is 37000 nM. The selectivity ratio in data set [18] was determined as 12300. In [19], this compound yielded a logP of -0.83. Moreover, the logD in data set [20] is -1.01. Besides, the apparent permeability (Papp) at 0.5 h in [21] was 47.8 ×10⁻⁶ cm/s.

For `C=C(C)[C@H]1CC[C@]2(C)[C@H]3CC[C@@H]4[C@@]5(C)C[C@H](OC(C)=O)C[C@](C)(C(=O)O)[C@@H]5CC[C@@]4(C)[C@]3(C)CC[C@@H]12`, the pIC50 in data set [1] is 5.77.

`CCCN([C@H](CO)CCC[C@H](C)NC(=O)[C@@H](NC(=O)OC)C(c1ccccc1)c1ccccc1)S(=O)(=O)c1ccc(N)cc1`: the AUC was determined as 1.35 µM·h in data set [22] and 2.48 µM·h in data set [27]. The half-life in [23] was 12.4 h; in [26], 9.1 h. The clearance is 30 mL/min/kg in data set [24] and 5.3 mL/min/kg in data set [25].

For the compound `Cc1c(O)cccc1C(=O)N[C@@H](c1cccs1)[C@H](O)CN1C[C@H]2CCCC[C@H]2C[C@H]1C(=O)NC(C)(C)C`, the negative logarithm of the IC50 (pIC50) in data set [28] was 4.52.

As for `COc1ccc(S(=O)(=O)N(CC(C)C)C[C@@H](O)[C@H](Cc2ccccc2)NC(=O)O[C@H]2CO[C@H]3OCC(F)(F)[C@H]32)cc1`, the pKi in [2] was 9.10. The pEC50 in [3] was 9.10; in data set [4] it was 8.64; in [5], 8.40; in [6], 8.70; in data set [7], 7.68; in [8] it was 7.85. In addition, the pEC50 in data set [9] is 8.70; in [10], 8.40. Besides, the “Ratio EC50” value was 2 in [11]; 1 in data set [12]; 10 in data set [13]; 7 in data set [14]; 1 in [15]; 2 in data set [16]. In [17], the CC50 worked out at 17500 nM. In addition, in data set [18], the selectivity ratio is 21900. Also, the logP in [19] was -0.14. Moreover, in data set [20], the logD was -0.29. Also, the Papp at 0.5 h in data set [21] turned out to be 61.8 ×10⁻⁶ cm/s.

For the compound `CCOP(=O)(COc1ccc(C[C@H](NC(=O)O[C@H]2CO[C@H]3OCC[C@H]32)[C@H](O)CN(CC(C)C)S(=O)(=O)c2ccc(OC)cc2)cc1)OCC`, the pKi in data set [29] is 11.09. The pEC50 in [30] is 8.46.

In the case of `COc1ccc(S(=O)(=O)N(CC(C)C)C[C@@H](O)[C@H](Cc2ccccc2)NC(=O)O[C@@H]2C[C@@H]3OCO[C@@H]3C2)cc1`, in [2], the pKi was 9.96. Moreover, in [31], the pIC50 was 8.42.

Turning to `Cc1cccc(C)c1OCC(=O)N(Cc1ccccc1)C[C@@H]1CNC[C@H]1CN(CC(C)C)S(=O)(=O)c1ccccc1`, in data set [32], the pIC50 is 5.66.

`CC(C)(C)NC(=O)[C@@H]1C[C@@H]2CCCC[C@@H]2CN1C[C@@H](O)[C@@H](NC(=O)[C@H](CC(N)=O)NC(=O)c1ccc2ccccc2n1)c1cccs1`: the pIC50 in data set [28] is 5.30.

In the case of `COc1ccc(S(=O)(=O)N(CC(C)C)C[C@@H](O)[C@H](Cc2ccc(OCP(=O)(O)O)cc2)NC(=O)O[C@H]2CO[C@H]3OCC[C@H]32)cc1`, the pKi in data set [29] is 10.88.

Consider `CCCN([C@H](CO)CCC[C@@H](NC(=O)[C@@H](NC(=O)OC)C(c1ccccc1)c1ccccc1)C(F)(F)F)S(=O)(=O)c1ccc(N)cc1`, for which the figures for the AUC in [22] and in data set [27] were 0.56 µM·h and 3.62 µM·h, respectively. In addition, the results for the half-life in data set [23] and in data set [26] were 3.38 h and 5.2 h, respectively. Also, the clearance in data set [24] was 17.4 mL/min/kg; in data set [25] it was 4.7 mL/min/kg.

What is called pIC50 is the IC50 on a negative log10 scale, so that one unit is a factor of ten. By pKi is commonly meant the Ki on a negative log10 scale, so that one unit is a factor of ten. Usually pEC50 stands for −log10 of the EC50, conventionally taken in molar units. As usually defined, the CC50 is the concentration at which the toxic effect on the cells reaches its halfway point. One may read the logP as a log measure of how a compound divides between an organic and an aqueous phase. Usually logD stands for lipophilicity at a set pH, counting ionised and neutral species. Broadly, the Papp is the rate of passage across a membrane or cell layer, normalised by area and donor concentration. As usually defined, the AUC is concentration integrated over time. By half-life is commonly meant how long it takes for the measured level to halve. The clearance is the rate of elimination divided by the concentration.
